Experiments:
[1] = biological target: T1, human KOR (Homo sapiens, UniProt P41145); assay: [3H]-diprenorphine competitive displacement binding, KOR; conditions: for Ki: membranes from CHO cells expressing human KOR, mean (SEM), n>=3 in duplicate
T1 construct: expressed in transfected cells; cell lines provided by Professor Lawrence Toll
Description: (§1) Each novel compound was evaluated for binding to and stimulation of KOR, MOR, and DOR. Binding affinity (Ki) was determined by competitive displacement of [^3H]-diprenorphine, a non-selective opioid receptor antagonist with similar affinity for each of the three receptors. Potency (EC50) and efficacy, expressed as percent stimulation compared to a standard agonist at each receptor, were determined by a [^35S]-GTPγS binding assay.
(§2) Membranes prepared from transfected Chinese Hamster Ovary cells stably expressing human KOR, human MOR, or human DOR were used for all assays. Cells were grown to confluence at 37 °C in 5% CO2 in 1:1 DMEM:F12 media with 10% v/v fetal bovine serum and 5% v/v penicillin/streptomycin. Membranes were prepared by washing confluent cells three times with ice cold phosphate-buffered saline (0.9% NaCl, 0.61 mM Na2HPO4, 0.38 mM KH2PO4, pH 7.4). Cells were detached from the plates by incubation in warm harvesting buffer (20 mM HEPES, 150 mM NaCl, 0.68 mM EDTA, pH 7.4) and pelleted by centrifugation at 200× g for 3 min. The cell pellet was suspended in ice-cold 50 mM Tris-HCl buffer, pH 7.4 and homogenized with a Tissue Tearor (Biospec Products, Inc, distributed by Cole-Parmer, Vernon Hills, IL, USA) for 20 s at setting 4. The homogenate was centrifuged at 20,000× g for 20 min at 4 °C, and the pellet was rehomogenized in 50 mM Tris-HCl pH 7.4 with a Tissue Tearor for 10 s at setting 2, followed by recentrifugation. The final pellet was resuspended in 50 mM Tris-HCl pH 7.4 and frozen in aliquots at −80 °C. Protein concentration was determined via Pierce BCA protein assay kit using bovine serum albumin as the standard.
(§3) Binding affinities for all test compounds at KOR, MOR, and DOR were determined by competitive displacement of [^3H]-diprenorphine as previously reported. In a 96-well plate format, cell membranes (5–10 µg of protein) and [^3H]-diprenorphine (0.2 nM) were incubated in Tris-HCl buffer (50 mM, pH 7.4) with various concentrations of test compound at 25 °C for 1 h, allowing the mixture to reach equilibrium. Nonspecific binding was determined using the opioid antagonist naloxone (10 µM), and total binding was determined using vehicle in the absence of competitive ligand. After incubation, membranes were filtered through Whatman GF/C 1.2 micron glass fiber filters and washed with 50 mM Tris-HCl buffer. The radioactivity remaining on the filters was then quantified by liquid scintillation counting after saturation with EcoLume liquid scintillation cocktail in a Microbeta 2450 (Perkin-Elmer, Waltham, MA, USA). Binding affinity (Ki) values were calculated using the Cheng–Prusoff equation via nonlinear regression analysis using GraphPad Prism software from at least three separate binding assays performed in duplicate.

[2] = biological target: T2, human MOR (Homo sapiens, UniProt P35372); assay: [3H]-diprenorphine competitive displacement binding, MOR; conditions: membranes from CHO cells expressing human MOR; mean (SEM), n>=3 in duplicate
T2 construct: expressed in transfected cells; cell lines provided by Professor Lawrence Toll
Description: as §1, §2, §3

[3] = biological target: T3, human DOR (Homo sapiens, UniProt P41143); assay: [3H]-diprenorphine competitive displacement binding, DOR; conditions: membranes from CHO cells expressing human DOR; mean (SEM), n>=3 in duplicate
T3 construct: expressed in transfected cells; cell lines provided by Professor Lawrence Toll
Description: as §1, §2, §3

[4] = biological target: T1, human KOR; assay: [35S]-GTPγS binding stimulation, KOR; format: biochemical; conditions: mean (SEM); for EC50 KOR / EC50: CHO-human KOR membranes, * n = 2, dns = does not stimulate, average maximal stimulation <10% at up to 10 µM; for % Stimulation KOR / Emax: versus 10 µM standard agonist U69,593, dns = average maximal stimulation <10% at up to 10 µM
Description: as §1, §2
(§4) Agonist stimulation of KOR, MOR, and DOR by all test compounds was determined by [^35S]-guanosine 5′-O-[γ-thio]triphosphate ([^35S]-GTPγS) binding assays as previously reported. In a 96-well plate format, membranes from cells expressing opioid receptors as described above (10 µg of protein), [^35S]-GTPγS (0.1 nM), and guanosine diphosphate (30 µM) were incubated in GTPγS buffer (50 mM Tris-HCl, 100 mM NaCl, 5 mM MgCl2, 1 mM EDTA, pH 7.4) with various concentrations of test compound at 25 °C for 1 h. Basal stimulation was determined by incubation in the absence of any ligand. After incubation, membranes were filtered through Whatman GF/C 1.2 micron glass fiber filters and washed with GTPγS buffer with no EDTA. The radioactivity remaining on the filters was then quantified by liquid scintillation counting after saturation with EcoLume liquid scintillation cocktail in a Perkin-Elmer Microbeta 2450. Data are reported as percent stimulation compared to the effects of 10 µM standard agonists—U69,593 (KOR), DAMGO (MOR), or DPDPE (DOR). Percent stimulation and EC50 values were determined via nonlinear regression analysis using GraphPad Prism software from at least three separate assays performed in duplicate. Efficacy is expressed as percent stimulation relative to standard agonists.

[5] = biological target: T2, human MOR; assay: [35S]-GTPγS binding stimulation, MOR; format: biochemical; conditions: for EC50: CHO-human MOR membranes, dns = does not stimulate, average maximal stimulation <10% at up to 10 µM; for EC50 / Emax: mean (SEM), * n = 2; for Emax: versus 10 µM standard agonist DAMGO, dns = average maximal stimulation <10% at up to 10 µM
Description: as §1, §2, §4

[6] = biological target: T3, human DOR; assay: [35S]-GTPγS binding stimulation, DOR; format: biochemical; conditions: mean (SEM), * n = 2; for EC50 DOR / EC50: CHO-human DOR membranes, dns = does not stimulate, average maximal stimulation <10% at up to 10 µM; for % Stimulation DOR: versus 10 µM standard agonist DPDPE, dns = average maximal stimulation <10% at up to 10 µM
Description: as §1, §2, §4

SMILES	Ki [1] [nM]	Ki [2] [nM]	Ki [3] [nM]	EC50 KOR [4]	% Stimulation KOR [4]	EC50 [5] [nM]	Emax [5] [%]	EC50 DOR [6]	% Stimulation DOR [6]	EC50 [4] [nM]	Emax [4] [%]	EC50 [6] [nM]	selective for KOR and DOR over MOR ([1]; binding selectivity)	more potent at MOR (versus KOR) ([5]; ratio of EC50 values, GTPγS)	selectivity for MOR and DOR over KOR ([1]; binding selectivity) [fold]
Cc1cc(O)cc(C)c1C[C@H](N)C(=O)N1CCc2ccc(CN3CCOCC3)cc2C1 [Compound 8n, (S)-2-amino-3-(4-hydroxy-2,6-dimethylphenyl)-1-(7-(morpholinomethyl)-3,4-dihydroisoquinolin-2(1H)-yl)propan-1-one]	43	39	5.6	dns	dns	860	38	dns	dns						
Cc1cc(O)cc(C)c1C[C@H](N)C(=O)N1CCc2ccc(Cc3cccc4ccccc34)cc2C1 [Compound 8o, (S)-2-amino-3-(4-hydroxy-2,6-dimethylphenyl)-1-(7-(naphthalen-1-ylmethyl)-3,4-dihydroisoquinolin-2(1H)-yl)propan-1-one]	4.7	5.2	3.2			132	59	dns	dns	349	83				
Cc1cc(O)cc(C)c1C[C@H](N)C(=O)N1CCc2ccc(Cc3ccc4ccccc4c3)cc2C1 [Compound 8p, (S)-2-amino-3-(4-hydroxy-2,6-dimethylphenyl)-1-(7-(naphthalen-2-ylmethyl)-3,4-dihydroisoquinolin-2(1H)-yl)propan-1-one]	142	5.8	3.5	dns	dns	176	51	dns	dns						
Cc1cc(O)cc(C)c1C[C@H](N)C(=O)N1CCc2ccc(Cc3cccc4cccnc34)cc2C1 [Compound 8q, (S)-2-amino-3-(4-hydroxy-2,6-dimethylphenyl)-1-(7-(quinolin-8-ylmethyl)-3,4-dihydroisoquinolin-2(1H)-yl)propan-1-one]	19	1.4	0.46			24	63		23 (4) %	258	25	1.2			
Cc1cc(O)cc(C)c1C[C@H](N)C(=O)N1CCc2ccc(Cc3cccc4ccncc34)cc2C1 [Compound 8r, (S)-2-amino-3-(4-hydroxy-2,6-dimethylphenyl)-1-(7-(isoquinolin-8-ylmethyl)-3,4-dihydroisoquinolin-2(1H)-yl)propan-1-one]	2.7	1.8	0.69			24	36	dns *	dns *	65	42				
Cc1cc(O)cc(C)c1C[C@H](N)C(=O)N1CCc2ccc(Cc3cccc4cnccc34)cc2C1 [Compound 8s, (S)-2-amino-3-(4-hydroxy-2,6-dimethylphenyl)-1-(7-(isoquinolin-5-ylmethyl)-3,4-dihydroisoquinolin-2(1H)-yl)propan-1-one]	10	9.7	1.2			43	28	dns	dns	609	24				
Cc1cc(O)cc(C)c1C[C@H](N)C(=O)N1CCc2ccc(Cc3cccc4ncccc34)cc2C1 [Compound 8t, (S)-2-amino-3-(4-hydroxy-2,6-dimethylphenyl)-1-(7-(quinolin-5-ylmethyl)-3,4-dihydroisoquinolin-2(1H)-yl)propan-1-one]	1.5	4.6	1.2			54	31	dns *	dns *	58	69		approximately 3 fold	equipotent	
Cc1cc(O)cc(C)c1C[C@H](N)C(=O)N1CCc2ccc(Cc3ccnc4ccccc34)cc2C1 [Compound 8u, (S)-2-amino-3-(4-hydroxy-2,6-dimethylphenyl)-1-(7-(quinolin-4-ylmethyl)-3,4-dihydroisoquinolin-2(1H)-yl)propan-1-one]	8.6	6.6	0.79	dns	dns	54	45	dns *	dns *						
Cc1cc(O)cc(C)c1C[C@H](N)C(=O)N1CCc2ccc(Cc3cncc4ccccc34)cc2C1 [Compound 8v, (S)-2-amino-3-(4-hydroxy-2,6-dimethylphenyl)-1-(7-(isoquinolin-4-ylmethyl)-3,4-dihydroisoquinolin-2(1H)-yl)propan-1-one]	0.73	1.4	0.3			12	81		39 (7) %	14	71	19			
Cc1cc(O)cc(C)c1C[C@H](N)C(=O)N1CCc2ccc(CN3CCc4ccccc4C3)cc2C1 [Compound 8w, (S)-2-amino-1-(7-((3,4-dihydroisoquinolin-2(1H)-yl)methyl)-3,4-dihydroisoquinolin-2(1H)-yl)-3-(4-hydroxy-2,6-dimethylphenyl)propan-1-one]	42	0.6	2.3	dns	dns	8.2	85	dns *	dns *						18
Cc1cc(O)cc(C)c1C[C@H](N)C(=O)N1CCc2ccc(CN3CCCc4ccccc43)cc2C1 [Compound 8x, (S)-2-amino-1-(7-((3,4-dihydroquinolin-1(2H)-yl)methyl)-3,4-dihydroisoquinolin-2(1H)-yl)-3-(4-hydroxy-2,6-dimethylphenyl)propan-1-one]	7.1	7.2	6.6			73	65	dns *	dns *	375	67				

— article PMC6930500, “Structure–Activity Relationships of 7-Substituted Dimethyltyrosine-Tetrahydroisoquinoline Opioid Peptidomimetics” (Molecules, 2019)
